Data published in patent US20200171162A1, “E-POLY-L-LYSINE DERIVATIVES HAVING FUNCTIONAL GROUP FOR CLICK CHEMISTRY, METHOD FOR PRODUCING THE SAME, AND USE THEREOF” (Fukui Prefectural University, priority 2017, published 2020).

What was measured:
physchem = test: physchem
Description: A commercial DBCO-PEG4-5/6-FAM represented by formula (12) (0.5 μmol) and a 9- to 18-mer ε-PL-PEG-azide represented by the general formula (10) (wherein n is an integer of 9 to 18) (1.0 μmol) were dissolved in 80% dimethylsulfoxide (hereinafter referred to as DMSO). The mixture was subjected to a click chemistry reaction while stirred at 30° C. for 24 hours. The reaction mixture was analyzed by ESI-TOF-MS/HPLC as described in Example 1.

HeLa cells = test: Biomembrane permeability test using HeLa cells (fluorescence intensity of cell extract); format: cell-based; conditions: statement for the unmodified dye
Description: The culture of HeLa cells was performed in a Dulbecco's modified Eagle's medium (DMEM) containing 10% fetal bovine serum (FBS) in an atmosphere of 5% carbon dioxide at 37° C. Under such culture conditions, the cells were cultured in 12-well plates until grown to 70 to 80% confluency. The cells were washed twice with DMEM without FBS (DMEM w/o FBS). […] Incubation was performed at 4° C. for 30 minutes. The cells were washed successively with phosphate buffered saline (PBS) twice, with PBS alone or PBS containing heparin (100 μg/mL), and with PBS twice. To the cells, 300 μL of 100 mM Tris-HCl buffer solution (pH 8.0) containing 1% Triton X-100 was added for extraction of the compound taken up by the cells. After removing the insoluble fraction by centrifugation, fluorescence intensity was measured.
The culture of HeLa cells was performed in a Dulbecco's modified Eagle's medium (DMEM) containing 10% fetal bovine serum (FBS) in an atmosphere of 5% carbon dioxide at 370° C. Under such culture conditions, the cells were cultured in 12-well plates until grown to 70 to 80% confluency. The cells were washed twice with DMEM without FBS (DMEM w/o FBS). […] Incubation was performed at 4° C. for 30 minutes. […] After removing the insoluble fraction by centrifugation, fluorescence intensity was measured.

[1] = test system: human chronic myelogenous leukemia K562 cells; test: Cytotoxicity (anticancer activity), MTT assay; format: cell-based; conditions: 48 hours
Description: (§1) The culture of K562 cells and K562/ADR cells was performed in an RPMI1640 medium containing 10% fetal bovine serum (FBS) in an atmosphere of 5% carbon dioxide at 37° C. The cells were suspended at 1×10^5 cells/mL in the medium, and 100 μL (1×10^4 cells) of the cell suspension was seeded on each well of 96-well plates and cultured for 24 hours. […] MTT assay was performed to determine cytotoxicity based on viable cell count.

[2] = test system: Dox-resistant K562 cells (K562/ADR); test: Cytotoxicity (anticancer activity), MTT assay; format: cell-based; conditions: Homo sapiens, 48 hours
Description: as §1

With `C[C@@H]1[C@H](O)[C@@H](C)/C=C/C=C/C=C/C=C/C=C/C=C/C=C/[C@H](O[C@@H]2O[C@H](C)[C@@H](O)[C@H](N)[C@@H]2O)C[C@@H]2O[C@](O)(C[C@@H](O)C[C@@H](O)[C@H](O)CC[C@@H](O)C[C@@H](O)CC(=O)O[C@H]1C)C[C@H](O)[C@H]2C(=O)O` [AmpB, amphotericin B] the solubility (physchem; water) was under 1080 µM.

For `O=C(CCOCCOCCOCCOCCNC(=O)c1ccc(-c2c3ccc(=O)cc-3oc3cc(O)ccc23)c(C(=O)O)c1)NCCC(=O)N1Cc2ccccc2C#Cc2ccccc21` [DBCO-PEG4-5/6-FAM], the water solubility (physchem) was “poorly water-soluble” and the biomembrane permeability (HeLa cells) was “no biomembrane permeability”.

Work on `COc1cccc2c1C(=O)c1c(O)c3c(c(O)c1C2=O)C[C@@](O)(C(=O)CO)C[C@@H]3O[C@H]1C[C@H](N)[C@H](O)[C@H](C)O1` [Dox, doxorubicin] yielded an IC50 [1] of 239 ± 72 nM and an IC50 [2] of 1040 nM.
